What was measured:
[1] = Lactate levels in skeletal muscle of NMN-treated mice; format: in vivo; settings: 22-month-old mice; NMN one week
Excerpt: (§1) C57BL/6J mice of 6, 22, or 30 months of age were obtained from the National Institutes of Aging mouse aging colony. Additionally 22 months old caloric restricted mice were also obtained from the National Institutes of Aging mouse aging colony. EGLN1 KO, SIRT1 KO and SIRT1 OE mice were generated as previously described (Minamishima et al., 2008; Price et al., 2012). Mice were acclimated for at least one-week prior to sacrifice. 3, 6, 22 and 24-month-old mice were given interperitoneal (IP) injections of 500 mg NMN/kg body weight per day or the equivalent volume of PBS for 7 consecutive days at 5:00 pm and 7:00 am on day 8 and sacrificed 4 hr after last injection.

[2] = system: Atrogin-1 and MuRF1; experiment: Immunoblot for muscle wasting markers in gastrocnemius; format: in vivo; settings: skeletal muscle of old (22-month-old) mice; NMN
Excerpt: as §1
Protein extracts from tissue or C2C12 cells were obtained by lysis in ice-cold lysis buffer (150 mM NaCl, 10 mM Tris HCl (pH 7.4), 1 mM EDTA, 1 mM EGTA, 1% Triton X-100, 0.5% NP-40) supplemented with a cocktail of protease and phosphatase inhibitors (Roche). Protein content was determined by the Bradford protein assay (Biorad), and 50 μg proteins were run on SDS-PAGE under reducing conditions. The separated proteins were then electrophoretically transferred to a polyvinylidene difluoride membrane (Perkin-Elmer). […] The immunostaining was detected using horseradish peroxidase-conjugated anti-rabbit or anti-mouse immunoglobulin for 1 h at room temperature.

[3] = system: primary myoblasts; experiment: qPCR of mitochondrial-encoded genes in primary myoblasts with NMNAT1 knockdown; format: cell-based, mice; settings: knockdown of NMNAT1, NMN
Description: Primary myoblasts cells were isolated from WT, SIRT1 KO (Price et al., 2012) and PGC-1α/β KO (Zechner et al., 2010) mice as previously described (Price et al., 2012). WT and PGC-1α/β KO primary myoblasts were plated and allowed to differentiate into myotubes by replacing the media with low glucose DMEM supplemented with 2% horse serum (Sigma-Aldrich) for 4 days. After the differentiation the cells were infected with empty vector or flag-SIRT1 adenovirus as described before (Gerhart-Hines et al., 2007). Media was replaced with fresh DMEM supplemented with 2% horse serum (Sigma-Aldrich) for an additional 48 hr and, after that the cells were harvested for the different assays as described. […]
RNA from skeletal muscle tissue and C2C12 cells were extracted with RNeasy mini kit (Qiagen) according to the instructions and quantified using the NanoDrop 1000 spectrophotometer (Thermo Scientific). cDNA was synthesized with the iSCRIP cDNA synthesis kit (BioRad) using 600 ng of RNA. Quantitative RT-PCR reactions were performed using 1 μM of primers and LightCycler® 480 SYBR Green Master (Roche) on an LightCycler® 480 detection system (Roche). […]

## NC(=O)c1ccc[n+]([C@@H]2O[C@H](COP(=O)([O-])O)[C@@H](O)[C@H]2O)c1 [NMN, nicotinamide mononucleotide]
[1]
  lactate levels in the skeletal muscle: suppressed the increase in lactate levels
[2]
  muscle wasting markers Atrogin-1 and MuRF1: completely reversed
[3]
  expression of mitochondrial-encoded genes: completely abolishes the ability of NMN to induce the expression of mitochondrial-encoded genes
